# Experiments:
# P. falciparum strain F32 = experiment: Anti-Plasmodium activity, strain F32; format: cell-based
# Method: (§1) P. falciparum strains (FcB1/Colombia, K1/Thailand, F32/Tanzania, W2/Indochina) were maintained in continuous culture on human erythrocytes in RPMI medium containing 7% (v/v) heat-inactivated human serum under an atmosphere of 3% CO2, 6% O2, 91% N2, at 37°C, as described by Trager and Jensen. Parasite synchronization was performed successively by treatment with 5% (w/v) sorbitol and by concentration in gelatin solution as previously described.
# (§2) Drug susceptibility assays were performed using a modification of the semi automated microdilution technique of Desjardins et al.. Stock solutions of test compounds were prepared in DMSO. Drug solutions were serially diluted twofold with 100 μl culture medium in 96-well plates. Asynchronous parasite cultures (100 μl, 1 % parasitemia and 1 % final hematocrite) were added to each well and incubated for 24 hours at 37°C prior to the addition of 0.5 μCi of [^3H] hypoxanthine (Amersham, France, 1 to 5 Ci.mmol/ml) per well. After a further incubation of 24 hour, plates were frozen and thawed. Cell lysates were then collected onto glass-filter papers and counted in a liquid scintillation spectrometer. The growth inhibition for each drug concentration was determined by comparison of the radioactivity incorporated in the treated culture with that in the control culture (having the same final % of DMSO) maintained on the same plate. […]
# P. falciparum strain W2 = experiment: Anti-Plasmodium activity, strain W2; format: cell-based
# Method: as §1, §2
# [1] = Cytotoxicity test upon human embryonic cells (MTT); format: cell-based; settings: human, MRC-5 human diploid embryonic lung cells; MRC-5, five days, MTT; mean of three experiments
# Method: (§3) A human diploid embryonic lung cell line (MRC-5, Bio-Whittaker 72211D) was used to assess the cytotoxic effects towards eukaryotic host cells. MRC-5 cells were seeded at 5,000 cells per well in 100 μl. After 24 hours, the cells were washed and two-fold dilutions of the drug were added in 200 μl standard culture medium (RPMI medium + 5% fetal calf serum) and maintained for five days under 5% CO2 atmosphere. The final DMSO concentration in the culture remained below 0.1%. Untreated cultures were included as controls. The cytotoxicity was determined using the colorimetric MTT assay according to the manufacturer's recommendations (Cell proliferation kit I, Roche Applied Science, France) and scored as a percentage of reduction in absorption at 540 nm of treated cultures versus untreated control cultures. […] The results were expressed as the mean ± the standard deviations determined from several independent experiments. The index of selectivity was defined as the ratio of the IC50 value on MRC-5 to that of P. falciparum.
# human MRC-5 cells = experiment: Cytotoxicity test upon human embryonic cells (MTT); format: cell-based
# Method: as §3
# [2] = test system: P. falciparum synchronized cultures; experiment: Parasite stage-specific inhibitory effects and reversibility (Giemsa-stained smears); format: cell-based, Plasmodium falciparum; settings: for recovery of parasite growth after drug removal: drug removed after 11 hours
# Method: Synchronized cultures (1–2% parasitemia) at the ring stage (0–10 hours old parasites), the trophozoite stage (25–35 hours old parasites) and the schizonte stage (40–48 hours old parasites) were maintained in the presence of drug concentrations in the vicinity of IC50 values. Aliquots were removed at the indicated times, washed three times with culture medium and maintained in culture in the absence or in the presence of a given drug. […] Parasitaemias were determined by counting 3,000 cells for each sample. Controls consisted of parasites incubated with DMSO instead of drugs processed in the same way.
# To investigate the cytostatic or cytotoxic effects of AD2646 on the parasite development, cultures at the ring stage (0–10 hours), the trophozoite stage (25–35 hours) and the schizonte stage (40–48 hours) were incubated with 30, 100 or 250 nM of AD2646 for 24.5 hours for the ring stage, for 11 hours for the trophozoite stage, and for 14 hours for the schizonte stage. Aliquots were then taken, washed and incubated in the absence or the presence of drug for a further 13 hours to 24 hours depending upon the parasite stage tested (see Figure 5). Parasitaemia and parasite stages were determined on Giemsa-stained smears at time of aliquot removal and after the subsequent incubation.
# [3] = test system: tubovesicular network of P. falciparum; experiment: Tubovesicular network formation, BODIPY-FL-C5-ceramide fluorescence microscopy; format: cell-based, Plasmodium falciparum
# Method: Infected erythrocytes treated with or without ceramide analogs were incubated for 30 min, at 37°C, in culture medium containing 10 μM BODIPY-FL-C5-ceramide, washed three times with culture medium without serum and fixed overnight, at 4°C, in 3.7% formaldehyde/0.05% glutaraldehyde. Cells were mounted on poly-L-lysine coated slides and viewed using a Nikon Eclipse TE 300 DV inverted microscope with an 100X oil objective mounted on a piezzo electric device using appropriate fluorescence emission filters. Image acquisition (z-series) was performed with a back illuminated cooled detector (CCD EEV: NTE/CCD-1024-EB, Roper Scientific, France) using a 0.2 μm step. Data acquisition and image deconvolution process were performed with Metamorph software (Universal Imaging Corporation, Roper Scientific, France). The images presented correspond to the maximum intensity projection of the deconvoluted z-series.
# [4] = test system: malaria-induced anion channel; experiment: Malaria-induced anion channel activity, whole-cell patch-clamp; format: cell-based, Plasmodium falciparum; settings: infected erythrocytes, 24 hours, 250 nM AD2646 or 10 μM PPMP, whole-cell patch-clamp (unpublished data)
# Description: Sphingolipids preferentially interact with cholesterol in membranes, especially in detergent-resistant microdomains (DRMs or rafts). Rafts have been described in Plasmodium and are involved, at least, in the uptake of erythrocyte raft proteins and maintenance of the parasitophorous vacuole containing the parasite, inside the erythrocyte. This interaction implies : 1) van der Waals interactions between the saturated acyl chain and sphingoid moiety of sphingolipids and the rigid planar tetracyclic rings of cholesterol and 2) hydrogen bonds between the 3-β hydroxyl group of cholesterol and the fatty acyl carbonyl group resulting from the amide linkage with the sphingoid moiety. The amide-linked fatty acid function seems to have a profound stabilizing effect on cholesterol-sphingolipid interactions. It could be hypothesized that in a membrane context, methylene analogs might have a destabilizing effect on the cholesterol-sphingolipid interactions and, in consequence, modifications of membrane properties. Indeed, P. falciparum growth is characterized by a setting up of new permeabilities of the infected-erythrocyte membrane. Although the biochemical nature of these new permeabilities is still unknown, they have been characterized from an electrophysiological point of view and involve a malaria-induced anion channel. […]
# CQ-resistant strain K1 = experiment: Drug combination with antimalarial drugs, strain K1; format: cell-based, Plasmodium falciparum; settings: CQ-resistant strain K1 (data not shown)
# Description: Compound AD2646 (Figure 1) was selected to further investigate the biological effects of methylene analogs on parasite development.
smiles,measurement,setting,value
CCCCCCCCCCCCCCN[C@H](CO)[C@H](O)c1ccc([N+](=O)[O-])cc1 [AD2646],IC50,P. falciparum strain F32,21 nM
same,IC50,P. falciparum strain W2,28 nM
same,IC90 at 5 days,[1],7500 nM
same,IC50,"human MRC-5 cells; Homo sapiens, MRC5, 120 h, MRC-5, five days, MTT, mean of three experiments",4900 nM
same,Index of selectivity,human MRC-5 cells; ratio of the IC50 value on MRC-5 cells to that on P. falciparum,160
same,parasite growth from the ring stage,"[2]; ring stage, 100 and 250 nM, no recovery after drug removal at 24 hours",irreversibly blocked at the young trophozoite stage
same,development of the ring stage,"[2]; ring stage, continuous incubation with 30 nM",slightly affected
same,development of the schizont stage,"[2]; schizont stage, 30 nM",a slight effect was only observed
same,parasite growth from the schizont stage,"[2]; schizont stage, 100 nM",irreversibly blocked
same,recovery of parasite growth after drug removal,"[2]; trophozoite stage, 30 nM",Only a partial recovery of parasite growth
same,recovery of parasite growth after drug removal,"[2]; trophozoite stage, 100 nM",No recovery of parasite growth
same,development of the trophozoite stage,"[2]; trophozoite stage, continuous incubation with 30 nM",completely blocked development
same,parasite development,[3]; 60 nM,blocks irreversibly the parasite development
same,TVN formation,[3]; rings incubated 24 hours with 60 nM AD2646 or 5 μM PPMP,TVN was distinctly observed
same,induced anion channel activity,[4],did not modulate significantly the induced channel activity
same,drug combination effect with CQ,CQ-resistant strain K1,non-synergistic and non-antagonistic effect

# From article PMC539285, “Anti-Plasmodium activity of ceramide analogs” (Malaria Journal, 2004)
